Results on 29 molecules are retold here after patent US11999727B2 (Tango Therapeutics, Inc., priority 2020, dated 2024).

Holding throughout (type): cell-based
In assay [1] the test system is HAP1 MTAP-deleted cell line. Kind of assay: SDMA in-cell western assay, HAP1 MTAP-deleted. The note with it: for IC50: Homo sapiens; for MTAP intact/deleted ratio: IC50 ratio HAP1 MTAP-intact / HAP1 MTAP-deleted, SDMA in-cell western. From the text: (§1) Table 1 also indicates IC50 values in an MTAP-isogenic cell line pair for exemplary compounds in an SDMA in-cell western assay (columns 7-8). HAP1 MTAP-intact is a cell line in which endogenous levels of MTAP are expressed, and HAP1 MTAP-deleted is an MTAP-null cell line.

Assay [2] relates to HAP1 MTAP-deleted cell line. Kind of assay: Viability assay, MTAP-deleted cell line. The note with it: Homo sapiens. From the text:
Table 1 additionally indicates IC50 values in a viability assay for the MTAP-deleted cell line (column 10), indicating the effect of treatment with compound on cell survival.

Assay [3] has as its system HAP1 MTAP-intact cell line. Put plainly: SDMA in-cell western assay, HAP1 MTAP-intact. The settings on record: Homo sapiens.
Source text: as §1

Setting [4] is: HAP1, read-out: HAP1 MTAP deleted IC50.
The mark [5] stands for this setting: HAP1, read-out: HAP1 MTAP deleted viability.
Setting [6] is: HAP1, read-out: MTAP HAP1 intact IC50.
The mark [7] stands for this setting: HAP1, SDMA in-cell western, HAP1 MTAP-deleted, read-out: HAP 1 MTAP deleted IC50.
[8] abbreviates: HAP1, viability IC50, MTAP-deleted cell line, read-out: HAP1 MTAP deleted viability.
The mark [9] stands for this setting: HAP1, SDMA in-cell western, HAP1 MTAP-intact, read-out: MTAP HAP1 intact IC50.

Where two headings read alike, the source gives them in different places.

Take `Cc1cc(NC(=O)C(=O)N2C[C@H](C)CC[C@H]2c2ccc(C(F)F)cc2)cnc1N` (single isomer, unassigned) [Compound 419]: the IC50 in assay [1] (setting [4]) is under 100 nM; in assay [2] (setting [5]) it was 1000 to 10000 nM; in assay [3] (setting [6]), 100 to 1000 nM.

Consider `C[C@H]1CC[C@H](c2ccc3c(c2)CCC(=O)N3)N(C(=O)C(=O)Nc2cncc(C(N)=O)c2)C1` (single isomer, unassigned) [Compound 479], for which the IC50 in assay [1] (setting [4]) was under 100 nM; in assay [2] (setting [5]), 1000 to 10000 nM; in assay [3] (setting [6]), over 1000 nM.

Regarding `C[C@@H]1CC[C@@H](c2ccc3c(c2)CCC(=O)N3)N(C(=O)C(=O)Nc2cncc(C(N)=O)c2)C1` (single isomer, unassigned) [Compound 480], the IC50 is over 1000 nM in assay [1] (setting [4]), over 10000 nM in assay [2] (setting [5]) and over 1000 nM in assay [3] (setting [6]).

For the molecule `C[C@H]1CC[C@H](c2ccc3[nH]ccc3c2)N(C(=O)C(=O)Nc2cncc(C(N)=O)c2)C1` (single isomer, unassigned) [Compound 481], the IC50 in assay [1] (setting [4]) was under 100 nM; in assay [2] (setting [5]) it was under 1000 nM; in assay [3] (setting [6]), 100 to 1000 nM.

Consider `Cc1cc(NC(=O)C(=O)N2C[C@@H](C)CC[C@@H]2c2ccc3c(c2)CCC(=O)N3)cnc1N` (single isomer, unassigned) [Compound 502], for which the IC50 in assay [1] (setting [4]) is under 100 nM; in assay [2] (setting [5]) it was under 1000 nM; in assay [3] (setting [6]) it was 100 to 1000 nM.

Consider `Cc1cc(NC(=O)C(=O)N2C[C@H](C)CC[C@H]2c2ccc3c(c2)CCC(=O)N3)cnc1N` (single isomer, unassigned) [Compound 505], for which the IC50 in assay [1] (setting [4]) is under 100 nM; in assay [2] (setting [5]), under 1000 nM; in assay [3] (setting [6]), 100 to 1000 nM.

With `C[C@H]1CC[C@H](c2ccc3scnc3c2)N(C(=O)C(=O)Nc2cncc(C(N)=O)c2)C1` (single isomer, unassigned) [Compound 587], the IC50 was under 100 nM in assay [1] (setting [4]), under 1000 nM in assay [2] (setting [5]) and 100 to 1000 nM in assay [3] (setting [6]).

For the molecule `C[C@@H]1CC[C@@H](c2ccc3scnc3c2)N(C(=O)C(=O)Nc2cncc(C(N)=O)c2)C1` (single isomer, unassigned) [Compound 588], the IC50 in assay [1] (setting [4]) was over 1000 nM; in assay [2] (setting [5]), over 10000 nM; in assay [3] (setting [6]) it was over 1000 nM.

`Cc1cc([C@@H]2CC[C@@H](C)CN2C(=O)C(=O)Nc2cncc(C(N)=O)c2)cc2cn[nH]c12` (single isomer, unassigned) [Compound 611]: the results for the IC50 in assay [1] (setting [7]), in assay [2] (setting [8]) and in assay [3] (setting [9]) were over 1000 nM, over 10000 nM and over 1000 nM, respectively. The MTAP intact/deleted ratio entry in assay [1] is “C (an IC50 ratio of less than 3 fold)”.

On to `Cc1cc(NC(=O)C(=O)N2C[C@@H](C)CC[C@@H]2c2ccc3c(c2)CC(=O)N3)cnc1N` (single isomer, unassigned) [Compound 678], for which the IC50 in assay [1] (setting [4]) was under 100 nM; in assay [2] (setting [5]), under 1000 nM; in assay [3] (setting [6]), under 100 nM.

Consider `COc1ncc(NC(=O)C(=O)N2C[C@H](C)CC[C@H]2c2ccc3sc(C)nc3c2)cc1C(N)=O` (single isomer, unassigned) [Compound 808], for which the IC50 in assay [1] (HAP1, SDMA in-cell western, HAP1 MTAP-deleted, read-out: HAP1 MTAP deleted IC50) is over 1000 nM; in assay [2] (HAP1, viability assay, HAP1 MTAP-deleted, read-out: HAP1 MTAP deleted viability), over 10000 nM; in assay [3] (setting [9]) it was over 1000 nM.

As for `C[C@H]1CC[C@H](c2ccc3cnccc3c2)N(C(=O)C(=O)Nc2cncc(C(N)=O)c2)C1` (single isomer, unassigned) [Compound 885], the IC50 is over 1000 nM in assay [1] (setting [4]), over 10000 nM in assay [2] (setting [5]) and over 1000 nM in assay [3] (setting [6]).

Turning to `C[C@@H]1CC[C@@H](c2ccc3cnccc3c2)N(C(=O)C(=O)Nc2cncc(C(N)=O)c2)C1` (single isomer, unassigned) [Compound 892], the IC50 in assay [1] (setting [4]) was under 100 nM; in assay [2] (setting [5]) it was under 1000 nM; in assay [3] (setting [6]), over 1000 nM.

As to `Cc1cc(NC(=O)C(=O)N2C[C@H](C)CC[C@H]2c2ccc3cnccc3c2)cnc1N` (single isomer, unassigned) [Compound 1000], the results for the IC50 in assay [1] (setting [4]), in assay [2] (setting [5]) and in assay [3] (setting [6]) were under 100 nM, under 1000 nM and 100 to 1000 nM, respectively.

As for `Cc1cc(NC(=O)C(=O)N2C[C@@H](C)CC[C@@H]2c2ccc3cnccc3c2)cnc1N` (single isomer, unassigned) [Compound 1002], the IC50 in assay [1] (setting [4]) was 100 to 1000 nM; in assay [2] (setting [5]), over 10000 nM; in assay [3] (setting [6]), over 1000 nM.

As to `Cc1cc(NC(=O)C(=O)N2C[C@H](C)CC[C@H]2c2ccc3sc(CN(C)C)nc3c2)cnc1N` (single isomer, unassigned) [Compound 1122], the IC50 in assay [1] (setting [4]) is under 100 nM; in assay [2] (setting [5]), under 1000 nM; in assay [3] (setting [6]), under 100 nM.

Consider `COc1ncc(NC(=O)C(=O)N2C[C@@H](C)CC[C@@H]2c2ccc3sc(C4CCN(C)CC4)nc3c2)cc1C(N)=O` (single isomer, unassigned) [Compound 1126], for which the IC50 is under 100 nM in assay [1] (setting [4]), under 1000 nM in assay [2] (setting [5]) and under 100 nM in assay [3] (setting [6]).

For `C[C@@H]1CC[C@@H](c2ccc3sc(C4CCN(C)CC4)nc3c2)N(C(=O)C(=O)Nc2cnc(N)c(C3CC3)c2)C1` (single isomer, unassigned) [Compound 1201], the IC50 in assay [1] (setting [4]) was 100 to 1000 nM; in assay [2] (setting [5]), under 1000 nM; in assay [3] (setting [6]), over 1000 nM.

With `C[C@H]1CC[C@H](c2ccc3sc(C4CCN(C)CC4)nc3c2)N(C(=O)C(=O)Nc2cnc(N)c(C3CC3)c2)C1` (single isomer, unassigned) [Compound 1222], the IC50 in assay [1] (setting [4]) was under 100 nM; in assay [2] (setting [5]), under 1000 nM; in assay [3] (setting [6]), under 100 nM.

As to `Cc1cc(NC(=O)C(=O)N2C[C@@H](C)CC[C@@H]2c2ccc3sc(CCN(C)C)nc3c2)cnc1N` (single isomer, unassigned) [Compound 1279], the IC50 in assay [1] (setting [4]) was under 100 nM; in assay [2] (setting [5]), under 1000 nM; in assay [3] (setting [6]) it was under 100 nM.

For `Cc1cc(NC(=O)C(=O)N2C[C@H](C)CC[C@H]2c2ccc3sc(C4CCN(C)CC4)nc3c2)cnc1N` (single isomer, unassigned) [Compound 1293], the IC50 is under 100 nM in assay [1] (setting [4]), under 1000 nM in assay [2] (setting [5]) and 100 to 1000 nM in assay [3] (setting [6]).

In the case of `Cc1cc(NC(=O)C(=O)N2C[C@@H](C)CC[C@@H]2c2ccc3sc(C4CCN(C)CC4)nc3c2)cnc1N` (single isomer, unassigned) [Compound 1314], the results for the IC50 in assay [1] (setting [4]), in assay [2] (setting [5]) and in assay [3] (setting [6]) were under 100 nM, under 1000 nM and under 100 nM, respectively.

With `C[C@H]1CC[C@H](c2ccc3sc(C4CCN(C)CC4)nc3c2)N(C(=O)C(=O)Nc2cnc(N)c(C3COC3)c2)C1` (single isomer, unassigned) [Compound 1334], the IC50 was under 100 nM in assay [1] (setting [4]), under 1000 nM in assay [2] (setting [5]) and under 100 nM in assay [3] (setting [6]).

On to `Cc1cc(NC(=O)C(=O)N2C[C@H](C)CC[C@H]2c2ccc3cn[nH]c3c2)cnc1N` (stereo in doubt) [Compound 613, N-(6-amino-5-methyl-3-pyridyl)-2-[(2S,5R)-2-(1H-indazol-6-yl)-5-methyl-1-piperidyl]-2-oxo-acetamide], for which the IC50 is over 1000 nM in assay [1] (setting [7]), over 10000 nM in assay [2] (setting [8]) and over 1000 nM in assay [3] (setting [9]). Moreover, the MTAP intact/deleted ratio result in assay [1] was “C (an IC50 ratio of less than 3 fold)”.

Turning to `Cc1cc(NC(=O)C(=O)N2C[C@@H](C)CC[C@@H]2c2ccc3c[nH]nc3c2)cnc1N` (stereo in doubt) [Compound 636, N-(6-amino-5-methyl-3-pyridyl)-2-[(2R,5S)-2-(1H-indazol-6-yl)-5-methyl-1-piperidyl]-2-oxo-acetamide], the IC50 was under 100 nM in assay [1] (setting [7]), under 1000 nM in assay [2] (setting [8]) and 100 to 1000 nM in assay [3] (setting [9]). The MTAP intact/deleted ratio entry in assay [1] is on record as “A (an IC50 ratio greater than or equal to 10 fold)”.

As to `CCc1cc(NC(=O)C(=O)N2C[C@H](C)CC[C@H]2c2ccc3scnc3c2)cnc1N` (stereo in doubt) [Compound 694, N-(6-amino-5-ethyl-3-pyridyl)-2-[(2S,5R)-2-(1,3-benzothiazol-5-yl)-5-methyl-1-piperidyl]-2-oxo-acetamide], the IC50 in assay [1] (setting [4]) is 100 to 1000 nM; in assay [2] (setting [5]) it was 1000 to 10000 nM; in assay [3] (setting [6]), over 1000 nM.

For `CCc1cc(NC(=O)C(=O)N2C[C@@H](C)CC[C@@H]2c2ccc3scnc3c2)cnc1N` (stereo in doubt) [Compound 701, N-(6-amino-5-ethyl-3-pyridyl)-2-[(2R,5S)-2-(1,3-benzothiazol-5-yl)-5-methyl-1-piperidyl]-2-oxo-acetamide], the IC50 is under 100 nM in assay [1] (setting [4]), under 1000 nM in assay [2] (setting [5]) and 100 to 1000 nM in assay [3] (setting [6]).

For the molecule `Cc1cc(NC(=O)C(=O)N2CCCCC2c2ccccc2)cnc1C` (stereo not drawn) [Compound 139, N-(5,6-dimethylpyridin-3-yl)-2-oxo-2-(2-phenylpiperidin-1-yl)acetamide], the IC50 in assay [1] (setting [4]) was over 1000 nM; in assay [2] (setting [5]), over 10000 nM; in assay [3] (setting [6]), over 1000 nM.

As for `Cc1cc(NC(=O)C(=O)N2C[C@@H](C)CC[C@@H]2c2ccc3scnc3c2)cnc1N` [Compound 616, N-(6-amino-5-methyl-3-pyridyl)-2-[(2R,5S)-2-(1,3-benzothiazol-5-yl)-5-methyl-1-piperidyl]-2-oxo-acetamide], the IC50 is under 100 nM in assay [1] (setting [4]), under 1000 nM in assay [2] (setting [5]) and 100 to 1000 nM in assay [3] (setting [6]).
